The kinase profiling compilation of Christmann-Franck et al. (2016)

How the values were obtained:
Assay in all cases: KINOMEscan competition binding
Details in all cases: compound 10.0 µM
[1] = target: ACVRL1 (human) (UniProt P37023)
[2] = target: TLK1 (human) (UniProt Q9UKI8)
[3] = target: SIK1 (human) (UniProt P57059)
[4] = target: RAF1 (human) (UniProt P04049)
[5] = target: NTRK2 (human) (UniProt Q16620)
[6] = target: DYRK1B (human) (UniProt Q9Y463)
[7] = target: NEK2 (human) (UniProt P51955)
[8] = target: STK36 (human) (UniProt Q9NRP7)
[9] = target: DDR2 (human) (UniProt Q16832)
[10] = target: MAPK14 (human) (UniProt Q16539)
[11] = target: MAPK3 (human) (UniProt P27361)
[12] = target: SYK (human) (UniProt P43405)
[13] = target: AAK1 (human) (UniProt Q2M2I8)
Chain of AAK1 (human) (Q2M2I8 whole entry, looked up): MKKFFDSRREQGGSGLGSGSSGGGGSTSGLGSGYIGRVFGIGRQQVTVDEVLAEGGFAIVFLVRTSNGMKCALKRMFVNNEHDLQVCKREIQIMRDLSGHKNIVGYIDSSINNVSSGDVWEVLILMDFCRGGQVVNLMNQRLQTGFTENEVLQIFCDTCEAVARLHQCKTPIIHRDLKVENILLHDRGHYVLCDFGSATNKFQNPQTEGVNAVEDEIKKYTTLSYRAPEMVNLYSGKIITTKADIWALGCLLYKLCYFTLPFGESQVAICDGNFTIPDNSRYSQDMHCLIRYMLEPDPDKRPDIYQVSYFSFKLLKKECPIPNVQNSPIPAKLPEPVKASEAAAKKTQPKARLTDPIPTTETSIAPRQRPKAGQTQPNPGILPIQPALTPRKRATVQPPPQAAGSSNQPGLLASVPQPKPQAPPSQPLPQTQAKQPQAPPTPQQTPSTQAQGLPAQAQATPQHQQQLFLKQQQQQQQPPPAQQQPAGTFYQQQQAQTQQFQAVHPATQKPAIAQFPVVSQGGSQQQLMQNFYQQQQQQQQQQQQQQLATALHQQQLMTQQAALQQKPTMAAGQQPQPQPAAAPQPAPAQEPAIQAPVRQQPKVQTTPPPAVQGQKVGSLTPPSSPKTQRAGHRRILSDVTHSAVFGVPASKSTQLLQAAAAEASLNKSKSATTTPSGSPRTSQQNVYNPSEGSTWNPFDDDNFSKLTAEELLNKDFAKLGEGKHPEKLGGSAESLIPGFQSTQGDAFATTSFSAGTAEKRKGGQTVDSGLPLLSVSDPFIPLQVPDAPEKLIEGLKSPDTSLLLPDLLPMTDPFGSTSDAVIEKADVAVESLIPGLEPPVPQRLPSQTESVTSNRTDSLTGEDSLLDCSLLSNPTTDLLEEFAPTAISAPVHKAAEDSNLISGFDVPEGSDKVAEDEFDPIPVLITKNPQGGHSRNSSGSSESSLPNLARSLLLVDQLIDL

[14] = target: RPS6KA4 KD2 (human) (UniProt O75676)
[15] = target: MARK4 (human) (UniProt Q96L34)
[16] = target: STK32C (human) (UniProt Q86UX6)
[17] = target: STK11 (human) (UniProt Q15831)
[18] = target: CDK8 (human) (UniProt P49336)
[19] = target: PIM2 (human) (UniProt Q9P1W9)
[20] = tested on: FLT3 (human), P36888 [ITD]
[21] = target: PAK4 (human) (UniProt O96013)
[22] = target: CDC42BPA (human) (UniProt Q5VT25)
[23] = target: IKBKB (human) (UniProt O14920)
[24] = target: GSK3B (human) (UniProt P49841)
[25] = target: MAP4K1 (human) (UniProt Q92918)
[26] = target: EPHB1 (human) (UniProt P54762)
[27] = target: FYN (human) (UniProt P06241)
Chain of FYN (human) (P06241 whole entry, looked up): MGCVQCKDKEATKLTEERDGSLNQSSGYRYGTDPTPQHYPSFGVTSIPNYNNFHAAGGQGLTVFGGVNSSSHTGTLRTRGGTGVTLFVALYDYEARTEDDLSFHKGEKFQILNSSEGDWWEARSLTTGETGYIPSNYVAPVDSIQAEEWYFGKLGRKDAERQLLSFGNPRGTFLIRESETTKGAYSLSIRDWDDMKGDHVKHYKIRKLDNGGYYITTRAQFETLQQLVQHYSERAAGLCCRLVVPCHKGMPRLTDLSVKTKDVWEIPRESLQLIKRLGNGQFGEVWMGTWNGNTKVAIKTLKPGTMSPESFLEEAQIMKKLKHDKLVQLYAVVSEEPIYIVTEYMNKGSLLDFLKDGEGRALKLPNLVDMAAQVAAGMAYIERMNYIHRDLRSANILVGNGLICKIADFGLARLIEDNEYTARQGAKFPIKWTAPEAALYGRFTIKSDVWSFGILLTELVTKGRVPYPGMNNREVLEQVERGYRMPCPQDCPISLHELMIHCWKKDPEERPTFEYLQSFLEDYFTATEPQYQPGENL

[28] = target: MKNK1 (human) (UniProt Q9BUB5)
[29] = target: RPS6KA5 KD1 (human) (UniProt O75582)
[30] = target: MARK1 (human) (UniProt Q9P0L2)
[31] = target: CAMK2D (human) (UniProt Q13557)
[32] = target: WEE1 (human) (UniProt P30291)
[33] = target: TTK (human) (UniProt P33981)
[34] = target: AURKC (human) (UniProt Q9UQB9)
[35] = target: MAPK13 (human) (UniProt O15264)
[36] = target: MAP4K3 (human) (UniProt Q8IVH8)
[37] = target: CAMK2A (human) (UniProt Q9UQM7)
Chain of CAMK2A (human) (Q9UQM7 whole entry, looked up): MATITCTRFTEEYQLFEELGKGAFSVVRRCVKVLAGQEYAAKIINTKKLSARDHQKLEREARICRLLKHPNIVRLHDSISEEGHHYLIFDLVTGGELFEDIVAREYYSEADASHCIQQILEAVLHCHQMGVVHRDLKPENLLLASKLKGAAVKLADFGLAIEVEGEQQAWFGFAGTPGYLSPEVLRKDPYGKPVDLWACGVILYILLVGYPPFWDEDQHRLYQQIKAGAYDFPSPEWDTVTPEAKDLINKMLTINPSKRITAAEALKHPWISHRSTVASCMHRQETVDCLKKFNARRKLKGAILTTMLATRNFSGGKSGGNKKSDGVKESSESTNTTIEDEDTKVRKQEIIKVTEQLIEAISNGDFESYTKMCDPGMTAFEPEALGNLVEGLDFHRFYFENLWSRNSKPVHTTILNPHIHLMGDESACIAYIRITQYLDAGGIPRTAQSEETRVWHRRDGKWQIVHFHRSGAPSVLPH

[38] = target: FRK (human) (UniProt P42685)
[39] = target: CDK18 (human) (UniProt Q07002)
Chain of CDK18 (human) (Q07002 whole entry, looked up): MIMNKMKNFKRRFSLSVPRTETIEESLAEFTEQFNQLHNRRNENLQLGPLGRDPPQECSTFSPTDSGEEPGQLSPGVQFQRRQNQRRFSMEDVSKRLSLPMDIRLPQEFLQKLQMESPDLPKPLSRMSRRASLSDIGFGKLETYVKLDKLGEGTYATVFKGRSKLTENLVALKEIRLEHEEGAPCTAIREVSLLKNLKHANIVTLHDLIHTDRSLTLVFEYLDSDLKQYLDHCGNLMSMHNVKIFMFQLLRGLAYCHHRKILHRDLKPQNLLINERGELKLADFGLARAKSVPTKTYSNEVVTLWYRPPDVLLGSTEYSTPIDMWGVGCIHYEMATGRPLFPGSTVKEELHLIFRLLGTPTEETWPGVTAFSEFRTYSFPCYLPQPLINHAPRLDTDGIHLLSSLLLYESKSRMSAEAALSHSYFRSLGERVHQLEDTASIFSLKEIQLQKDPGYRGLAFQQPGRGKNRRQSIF

[40] = target: MAP2K4 (human) (UniProt P45985)
Chain of MAP2K4 (human) (P45985 whole entry, looked up): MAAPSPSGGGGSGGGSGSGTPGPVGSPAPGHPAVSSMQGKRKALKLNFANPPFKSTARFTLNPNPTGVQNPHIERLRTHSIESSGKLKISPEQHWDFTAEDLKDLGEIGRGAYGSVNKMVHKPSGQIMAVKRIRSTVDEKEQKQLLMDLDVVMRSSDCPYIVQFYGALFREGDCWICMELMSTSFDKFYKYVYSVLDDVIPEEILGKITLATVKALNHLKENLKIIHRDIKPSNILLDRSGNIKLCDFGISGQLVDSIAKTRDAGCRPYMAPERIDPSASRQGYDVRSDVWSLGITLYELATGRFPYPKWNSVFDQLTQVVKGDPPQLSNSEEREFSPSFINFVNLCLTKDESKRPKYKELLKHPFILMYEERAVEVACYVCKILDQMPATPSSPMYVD

Chain of RAF1 (human) (P04049 whole entry, looked up): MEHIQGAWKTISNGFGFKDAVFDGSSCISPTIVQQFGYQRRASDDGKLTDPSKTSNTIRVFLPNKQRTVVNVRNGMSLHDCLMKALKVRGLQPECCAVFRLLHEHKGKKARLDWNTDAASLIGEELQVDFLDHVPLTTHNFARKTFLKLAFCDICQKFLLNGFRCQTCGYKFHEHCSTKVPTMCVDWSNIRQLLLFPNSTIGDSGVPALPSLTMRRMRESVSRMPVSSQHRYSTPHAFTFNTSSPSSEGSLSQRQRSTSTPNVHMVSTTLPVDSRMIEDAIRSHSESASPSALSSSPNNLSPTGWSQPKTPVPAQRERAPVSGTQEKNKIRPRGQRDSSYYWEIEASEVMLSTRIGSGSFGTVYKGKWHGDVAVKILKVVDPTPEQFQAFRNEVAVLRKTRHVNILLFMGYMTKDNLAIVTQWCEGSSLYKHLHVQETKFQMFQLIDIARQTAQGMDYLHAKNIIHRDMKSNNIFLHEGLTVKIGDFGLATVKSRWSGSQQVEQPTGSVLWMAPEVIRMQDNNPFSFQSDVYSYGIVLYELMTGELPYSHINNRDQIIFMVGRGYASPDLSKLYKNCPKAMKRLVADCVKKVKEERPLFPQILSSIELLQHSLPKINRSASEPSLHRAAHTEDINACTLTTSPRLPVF
Chain of SIK1 (human) (P57059 whole entry, looked up): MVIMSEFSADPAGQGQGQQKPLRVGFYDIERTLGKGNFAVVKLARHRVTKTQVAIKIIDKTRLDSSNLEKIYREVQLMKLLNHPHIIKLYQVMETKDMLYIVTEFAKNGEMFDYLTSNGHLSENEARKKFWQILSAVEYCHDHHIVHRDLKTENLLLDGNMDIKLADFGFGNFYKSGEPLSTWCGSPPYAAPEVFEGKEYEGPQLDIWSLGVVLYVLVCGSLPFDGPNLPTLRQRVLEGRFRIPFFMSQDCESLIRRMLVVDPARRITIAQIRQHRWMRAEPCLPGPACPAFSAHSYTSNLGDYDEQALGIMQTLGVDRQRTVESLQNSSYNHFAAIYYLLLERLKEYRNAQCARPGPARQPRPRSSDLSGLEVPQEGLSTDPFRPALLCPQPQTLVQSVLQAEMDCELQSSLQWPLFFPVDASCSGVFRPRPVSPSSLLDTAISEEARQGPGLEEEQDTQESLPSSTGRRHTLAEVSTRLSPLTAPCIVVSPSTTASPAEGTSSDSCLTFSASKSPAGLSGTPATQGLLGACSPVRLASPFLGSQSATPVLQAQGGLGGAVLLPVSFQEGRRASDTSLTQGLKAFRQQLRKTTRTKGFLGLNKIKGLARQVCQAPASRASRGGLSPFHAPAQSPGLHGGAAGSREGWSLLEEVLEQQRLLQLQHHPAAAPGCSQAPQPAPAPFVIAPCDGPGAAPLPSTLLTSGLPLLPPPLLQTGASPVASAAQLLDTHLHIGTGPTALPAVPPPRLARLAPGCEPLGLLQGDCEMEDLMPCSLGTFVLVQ
Chain of DYRK1B (human) (Q9Y463 whole entry, looked up): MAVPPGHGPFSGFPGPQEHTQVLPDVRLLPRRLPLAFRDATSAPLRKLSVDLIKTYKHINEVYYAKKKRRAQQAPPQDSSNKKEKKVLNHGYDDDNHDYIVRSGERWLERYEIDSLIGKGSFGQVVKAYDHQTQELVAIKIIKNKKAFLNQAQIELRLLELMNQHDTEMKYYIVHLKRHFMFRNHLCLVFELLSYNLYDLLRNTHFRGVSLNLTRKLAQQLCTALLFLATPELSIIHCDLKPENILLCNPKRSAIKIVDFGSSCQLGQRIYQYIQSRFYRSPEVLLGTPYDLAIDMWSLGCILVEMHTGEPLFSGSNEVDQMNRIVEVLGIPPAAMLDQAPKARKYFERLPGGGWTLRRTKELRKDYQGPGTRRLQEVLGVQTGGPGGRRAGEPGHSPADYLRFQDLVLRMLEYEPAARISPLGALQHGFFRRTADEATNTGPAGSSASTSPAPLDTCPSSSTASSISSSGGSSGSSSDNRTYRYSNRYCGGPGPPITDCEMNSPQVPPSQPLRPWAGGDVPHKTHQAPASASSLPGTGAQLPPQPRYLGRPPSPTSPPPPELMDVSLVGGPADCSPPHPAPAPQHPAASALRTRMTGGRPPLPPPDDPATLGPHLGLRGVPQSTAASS

Q: Which results are given for `O=C(NOC[C@H](O)CO)c1ccc(F)c(F)c1Nc1ccc(I)cc1F`?
A: kinase still bound, per cent of control [1]: 100%; kinase still bound, per cent of control [2]: 89%; kinase still bound, per cent of control [3]: 100%; kinase still bound, per cent of control [4]: 99%; kinase still bound, per cent of control [5]: 100%; kinase still bound, per cent of control [6]: 98%; kinase still bound, per cent of control [7]: 70%; kinase still bound, per cent of control [8]: 74%; kinase still bound, per cent of control [9]: 100%; kinase still bound, per cent of control [10]: 100%; kinase still bound, per cent of control [11]: 86%; kinase still bound, per cent of control [12]: 100%; kinase still bound, per cent of control [13]: 100%; kinase still bound, per cent of control [14]: 100%; kinase still bound, per cent of control [15]: 100%; kinase still bound, per cent of control [16]: 100%; kinase still bound, per cent of control [17]: 83%; kinase still bound, per cent of control [18]: 100%; kinase still bound, per cent of control [19]: 75%; kinase still bound, per cent of control [20]: 100%; kinase still bound, per cent of control [21]: 100%; kinase still bound, per cent of control [22]: 100%; kinase still bound, per cent of control [23]: 79%; kinase still bound, per cent of control [24]: 68%; kinase still bound, per cent of control [25]: 77%; kinase still bound, per cent of control [26]: 100%; kinase still bound, per cent of control [27]: 64%; kinase still bound, per cent of control [28]: 100%; kinase still bound, per cent of control [29]: 87%; kinase still bound, per cent of control [30]: 100%; kinase still bound, per cent of control [31]: 100%; kinase still bound, per cent of control [32]: 67%; kinase still bound, per cent of control [33]: 100%; kinase still bound, per cent of control [34]: 45%; kinase still bound, per cent of control [35]: 6.1%; kinase still bound, per cent of control [36]: 87%; kinase still bound, per cent of control [37]: 100%; kinase still bound, per cent of control [38]: 60%; kinase still bound, per cent of control [39]: 100%; kinase still bound, per cent of control [40]: 83%

Q: How did the kinase still bound, per cent of control [1] turn out when `CCC(=O)N1CCN(c2ccc(-n3c(=O)ccc4cnc5ccc(-c6cnc7ccccc7c6)cc5c43)cc2C(F)(F)F)CC1` was run?
A: 83%

Q: What about the kinase still bound, per cent of control [2] of the same compound?
A: 100%

Q: What about the kinase still bound, per cent of control [3] of the same compound?
A: 80%

Q: What about the kinase still bound, per cent of control [4] of the same compound?
A: 48%

Q: And the kinase still bound, per cent of control [5]?
A: 81%

Q: And the kinase still bound, per cent of control [6]?
A: 87%

Q: What about the kinase still bound, per cent of control [7] of the same compound?
A: 90%

Q: What about the kinase still bound, per cent of control [8] of the same compound?
A: 17%

Q: And the kinase still bound, per cent of control [9]?
A: 100%

Q: And the kinase still bound, per cent of control [10]?
A: 90%

Q: What about the kinase still bound, per cent of control [11] of the same compound?
A: 91%

Q: And the kinase still bound, per cent of control [12]?
A: 78%

Q: And the kinase still bound, per cent of control [13]?
A: 75%

Q: What about the kinase still bound, per cent of control [14] of the same compound?
A: 100%

Q: What about the kinase still bound, per cent of control [15] of the same compound?
A: 100%

Q: And the kinase still bound, per cent of control [16]?
A: 100%

Q: And the kinase still bound, per cent of control [17]?
A: 100%

Q: And the kinase still bound, per cent of control [18]?
A: 4.6%

Q: And the kinase still bound, per cent of control [19]?
A: 62%

Q: What about the kinase still bound, per cent of control [20] of the same compound?
A: 29%

Q: What about the kinase still bound, per cent of control [21] of the same compound?
A: 100%

Q: What about the kinase still bound, per cent of control [22] of the same compound?
A: 0.65%

Q: What about the kinase still bound, per cent of control [23] of the same compound?
A: 61%

Q: What about the kinase still bound, per cent of control [24] of the same compound?
A: 100%

Q: What about the kinase still bound, per cent of control [25] of the same compound?
A: 30%

Q: What about the kinase still bound, per cent of control [26] of the same compound?
A: 100%

Q: And the kinase still bound, per cent of control [27]?
A: 49%

Q: What about the kinase still bound, per cent of control [28] of the same compound?
A: 44%

Q: What about the kinase still bound, per cent of control [29] of the same compound?
A: 100%

Q: And the kinase still bound, per cent of control [30]?
A: 100%

Q: And the kinase still bound, per cent of control [31]?
A: 72%

Q: What about the kinase still bound, per cent of control [32] of the same compound?
A: 42%

Q: And the kinase still bound, per cent of control [33]?
A: 9.6%

Q: What about the kinase still bound, per cent of control [34] of the same compound?
A: 91%

Q: What about the kinase still bound, per cent of control [35] of the same compound?
A: 39%

Q: What about the kinase still bound, per cent of control [36] of the same compound?
A: 1.9%

Q: What about the kinase still bound, per cent of control [37] of the same compound?
A: 93%

Q: What about the kinase still bound, per cent of control [38] of the same compound?
A: 60%

Q: And the kinase still bound, per cent of control [39]?
A: 97%

Q: What about the kinase still bound, per cent of control [40] of the same compound?
A: 30%

Q: For `Nc1ccc(-c2ccc3ncc4ccc(=O)n(-c5cccc(C(F)(F)F)c5)c4c3c2)cn1`, which kinase still bound, per cent of control [1] is on record?
A: 59%

Q: And the kinase still bound, per cent of control [2]?
A: 90%

Q: And the kinase still bound, per cent of control [3]?
A: 79%

Q: And the kinase still bound, per cent of control [4]?
A: 100%

Q: And the kinase still bound, per cent of control [5]?
A: 72%

Q: What about the kinase still bound, per cent of control [6] of the same compound?
A: 97%

Q: And the kinase still bound, per cent of control [7]?
A: 100%

Q: What about the kinase still bound, per cent of control [8] of the same compound?
A: 99%

Q: What about the kinase still bound, per cent of control [9] of the same compound?
A: 99%

Q: What about the kinase still bound, per cent of control [10] of the same compound?
A: 100%

Q: What about the kinase still bound, per cent of control [11] of the same compound?
A: 100%

Q: What about the kinase still bound, per cent of control [12] of the same compound?
A: 100%

Q: What about the kinase still bound, per cent of control [13] of the same compound?
A: 71%

Q: And the kinase still bound, per cent of control [14]?
A: 100%

Q: And the kinase still bound, per cent of control [15]?
A: 100%

Q: And the kinase still bound, per cent of control [16]?
A: 100%

Q: What about the kinase still bound, per cent of control [17] of the same compound?
A: 98%

Q: What about the kinase still bound, per cent of control [18] of the same compound?
A: 100%

Q: And the kinase still bound, per cent of control [19]?
A: 100%

Q: And the kinase still bound, per cent of control [20]?
A: 45%

Q: What about the kinase still bound, per cent of control [21] of the same compound?
A: 100%

Q: What about the kinase still bound, per cent of control [22] of the same compound?
A: 99%

Q: And the kinase still bound, per cent of control [23]?
A: 89%

Q: What about the kinase still bound, per cent of control [24] of the same compound?
A: 100%

Q: What about the kinase still bound, per cent of control [25] of the same compound?
A: 100%

Q: What about the kinase still bound, per cent of control [26] of the same compound?
A: 100%

Q: And the kinase still bound, per cent of control [27]?
A: 92%

Q: And the kinase still bound, per cent of control [28]?
A: 43%

Q: What about the kinase still bound, per cent of control [29] of the same compound?
A: 100%

Q: What about the kinase still bound, per cent of control [30] of the same compound?
A: 100%

Q: What about the kinase still bound, per cent of control [31] of the same compound?
A: 85%

Q: What about the kinase still bound, per cent of control [32] of the same compound?
A: 100%

Q: What about the kinase still bound, per cent of control [33] of the same compound?
A: 42%

Q: What about the kinase still bound, per cent of control [34] of the same compound?
A: 100%

Q: What about the kinase still bound, per cent of control [35] of the same compound?
A: 48%

Q: And the kinase still bound, per cent of control [36]?
A: 63%

Q: And the kinase still bound, per cent of control [37]?
A: 83%

Q: And the kinase still bound, per cent of control [38]?
A: 100%

Q: What about the kinase still bound, per cent of control [39] of the same compound?
A: 100%

Q: What about the kinase still bound, per cent of control [40] of the same compound?
A: 44%
